Laboratory results from publication PMC10780244, “Antileishmanial Effect of 1,5- and 1,8-Substituted Fused Naphthyridines” (Molecules, 2023).

Test system: axenic iRFP-L. infantum amastigotes from bone marrow cells
Assay: Axenic amastigote viability assay (iRFP fluorescence, first screening)
Type: cell-based
Details: Leishmania infantum, Bone marrow cell, cut-off 25 µM, 72 h, read-out: Axenic Amastigotes (concentration with inhibition)
Protocol: (§1) The 1,5- and 1,8-fused naphthyridine derivatives were evaluated as antileishmanial agents in assays using two forms of L. infantum amastigotes: axenic amastigotes recovered from bone marrow cells of infected BALB/c mice and intramacrophagic amastigotes obtained from splenic explants of the same subjects. The L. infantum strain used is a genetically modified strain previously engineered by our group to constitutively express the infrared protein iRFP from Rhodopseudomonas palustris bacteriophytochrome (iRFP L. infantum). This strain allows monitoring the viability of both forms of the parasite by quantifying the fluorescence emitted at 700 nm by the iRFP protein produced by living amastigotes.
(§2) Amastigotes obtained from mouse bone marrow cells were used to perform a first screening with the complete series of fused 1,5- and 1,8-naphthyridines. […] The toxicity of these selected compounds was assessed in non-infected splenic cells and the cytotoxic concentration (CC50) value obtained was used to calculate the selective index (SI). The oral tolerability of these same compounds was tested by calculating the viability of murine intestinal organoids exposed to two concentrations (50 and 25 µM).
To obtain iRFP-L. infantum axenic amastigotes, femur and tibia were carefully cut at both ends, and marrow cells were removed by passing PBS through the medullary cavity with a 29G needle. The bone marrow cell suspension was filtered through a 100 µm cell strainer and centrifuged at 3500× g for 10 min at room temperature. After centrifugation, cells were resuspended in amastigote culture medium: 15 mM KCl; 136 mM KH2PO4; 10 mM K2HPO4·3H2O; 0.5 mM MgSO4. 7H2O; 24 mM NaHCO3; 22 mM glucose; 1 mM glutamine, 1xRPMI 1640 vitamin mix (Sigma-Aldrich, Merck, Darmstadt, Germany), 10 mM folic acid, 100 mM adenosine, 1xRPMI amino acid mix (Sigma-Aldrich, Merck, Darmstadt, Germany), 5 mg/mL hemin, antibiotic cocktail, 25 mM MES and 10% FBS, and incubated at 37 °C.
To test the antileishmanial effect of naphthyridines on axenic amastigotes, 40 μL of a suspension containing 3 × 10^4 iRFP-L. infantum parasites per well were incubated with another 40 μL of the drugs dilutions in amastigote culture medium with 7.5% FBS. Incubations were performed in 384-well black microtiter plates with an optical bottom at 37 °C and 5% CO2 for 72 h. Solutions of 0.1% (v/v) DMSO and 10 μM AMB were used as negative and positive controls, respectively. The assays were performed by triplicate.
(§3) The viability of axenic and intramacrophage amastigotes was calculated measuring the fluorescence emitted at 700 nm by the iRFP protein from live parasites and recorded by an Odyssey infrared imaging system (Li-Cor, NE, USA). The fluorescence emitted by the negative control wells was considered 100% viability, whereas the fluorescence emitted by the positive control wells, was adjusted to 0% viability.
Cc1ccc(S(=O)(=O)N2Cc3c(nc4ncc(Br)cc4c3-c3ccccc3)-c3ccccc32)cc1 [Compound 15b] showed a minimal effective concentration of less than 25 µM.
Work on Cc1ccc(S(=O)(=O)N2CC3C(Nc4cccnc4[C@H]3c3ccccc3)c3ccccc32)cc1 (stereo partly drawn) [Compound 8a] yielded a minimal effective concentration of less than 25 µM.
Cc1ccc(S(=O)(=O)N2CC3C(Nc4ccc(Br)nc4[C@H]3c3ccccc3)c3ccccc32)cc1 (stereo partly drawn) [Compound 8d] gave a minimal effective concentration of less than 25 µM.
Molecule COc1ccc2nc3c(c(-c4ccccc4)c2n1)c(=O)oc1ccccc13 [Compound 7c] has a minimal effective concentration of less than 25 µM.
O=C1Oc2ccccc2C2Nc3ccc(Br)nc3[C@@H](c3ccccc3)C12 (stereo partly drawn) [Compound 6b] showed a minimal effective concentration of less than 25 µM.
In the case of c1ccc(-c2c3c(nc4ncccc24)-c2ccccc2OC3)cc1 [Compound 11a], the minimal effective concentration is reported as less than 25 µM.
O=c1oc2ccccc2c2nc3ncccc3c(-c3ccccc3)c12 [Compound 13a] showed a minimal effective concentration of less than 25 µM.
Molecule Cc1ccc(S(=O)(=O)N2CC3C(Nc4ncccc4C3c3ccccc3)c3ccccc32)cc1 (stereo not drawn) [Compound 14a] has a minimal effective concentration of less than 25 µM.
In the case of COc1ccc2c(n1)[C@@H](c1ccccc1)C1CN(S(=O)(=O)c3ccc(C)cc3)c3ccccc3C1N2 (stereo partly drawn) [Compound 8c], the minimal effective concentration is reported as less than 25 µM.
In the case of O=c1oc2ccccc2c2nc3ncc(Br)cc3c(-c3ccccc3)c12 [Compound 13b], the minimal effective concentration is reported as less than 25 µM.
With Fc1ccc2c(c1)C1Nc3ncccc3[C@@H](c3ccccc3)C1CO2 (stereo partly drawn) [Compound 10b] the minimal effective concentration was less than 25 µM.

Test system: intramacrophagic iRFP-L. infantum amastigotes from murine spleens
Assay: Ex vivo intramacrophagic amastigote viability assay (iRFP fluorescence)
Type: cell-based, Leishmania infantum
Details: Leishmania infantum; ex vivo murine splenic explants, 72 h; read-out: Intracellular Amastigotes EC50
Protocol: as §1, §2
Intramacrophagic amastigotes were obtained by cutting spleens into small pieces that were incubated for 25 min with 0.5 mL of collagenase D (2 mg/mL) (Merck, Darmstadt, Germany) dissolved in 4.5 mL buffer (10 mM HEPES, pH 7.4, 150 mM NaCl, 5 mM KCl, 1 mM MgCl2 and 1.8 mM CaCl2). The cell suspension was filtered through a 100 µm cell strainer. After erythrocyte lysis (150 mM NH4Cl, 1 mM KHCO3, 0.1 mM EDTA), splenocytes were centrifuged three times at 500× g for 7 min at 4 °C, with PBS washes between each centrifugation. The splenocyte suspension containing intramacrophagic amastigotes was resuspended in RPMI medium (Gibco, Fisher Scientific, Waltham, MA, USA) supplemented with 20% FBS, 1 mM sodium pyruvate, 24 mM NaHCO3, 2 mM L-glutamine, 1× RPMI vitamins, 25 mM HEPES and antibiotic cocktail.
For the ex vivo intramacrophagic amastigote assay, 40 μL of one-half or one-third serial dilutions of each diluted in supplemented RPMI medium, were added to black 384-well optical-bottom black plates containing 40 μL of murine splenocytes obtained as described above. Positive controls (containing 10 μM of AMB) and negative controls (containing 0.1% v/v DMSO) were included. The plates were incubated at 37 °C and 5% CO2, for a maximum period of 72 h and the assays were performed by triplicate.
as §3
Fluorescence emitted by intramacrophage amastigotes were plotted against the drug concentration using the nonlinear fit analysis provided by the Sigma Plot 10.1 statistical package to obtain EC50 values.
In the case of Cc1ccc(S(=O)(=O)N2Cc3c(nc4ncc(Br)cc4c3-c3ccccc3)-c3ccccc32)cc1 [Compound 15b], the EC50 is reported as 6.16 ± 0.54 µM.
With Cc1ccc(S(=O)(=O)N2CC3C(Nc4cccnc4[C@H]3c3ccccc3)c3ccccc32)cc1 (stereo partly drawn) [Compound 8a] the EC50 was 5.3 ± 0.71 µM.
Molecule Cc1ccc(S(=O)(=O)N2CC3C(Nc4ccc(Br)nc4[C@H]3c3ccccc3)c3ccccc32)cc1 (stereo partly drawn) [Compound 8d] has an EC50 of 34.4 ± 9.7 µM.
In the case of COc1ccc2nc3c(c(-c4ccccc4)c2n1)c(=O)oc1ccccc13 [Compound 7c], the EC50 is reported as 37 ± 2.87 µM.
O=C1Oc2ccccc2C2Nc3ccc(Br)nc3[C@@H](c3ccccc3)C12 (stereo partly drawn) [Compound 6b] showed an EC50 of 12.9 ± 0.82 µM.
For c1ccc(-c2c3c(nc4ncccc24)-c2ccccc2OC3)cc1 [Compound 11a], the EC50 was 7.7 ± 0.29 µM.
With O=c1oc2ccccc2c2nc3ncccc3c(-c3ccccc3)c12 [Compound 13a] the EC50 was 10.6 ± 1.21 µM.
Molecule Cc1ccc(S(=O)(=O)N2CC3C(Nc4ncccc4C3c3ccccc3)c3ccccc32)cc1 (stereo not drawn) [Compound 14a] has an EC50 of 9.34 ± 0.77 µM.
With COc1ccc2c(n1)[C@@H](c1ccccc1)C1CN(S(=O)(=O)c3ccc(C)cc3)c3ccccc3C1N2 (stereo partly drawn) [Compound 8c] the EC50 was 4.93 ± 0.35 µM.
Molecule O=c1oc2ccccc2c2nc3ncc(Br)cc3c(-c3ccccc3)c12 [Compound 13b] has an EC50 of 7.53 ± 0.97 µM.
Fc1ccc2c(c1)C1Nc3ncccc3[C@@H](c3ccccc3)C1CO2 (stereo partly drawn) [Compound 10b] gave an EC50 of 7.57 ± 0.44 µM.

Same assay, conditions: ratio CC50 (splenic macrophages) / EC50 (intramacrophagic amastigotes)
Molecule Cc1ccc(S(=O)(=O)N2Cc3c(nc4ncc(Br)cc4c3-c3ccccc3)-c3ccccc32)cc1 [Compound 15b] has an SI of 4.0.
Work on Cc1ccc(S(=O)(=O)N2CC3C(Nc4cccnc4[C@H]3c3ccccc3)c3ccccc32)cc1 (stereo partly drawn) [Compound 8a] yielded an SI of 8.5.
For COc1ccc2nc3c(c(-c4ccccc4)c2n1)c(=O)oc1ccccc13 [Compound 7c], the SI was 2.6.
O=C1Oc2ccccc2C2Nc3ccc(Br)nc3[C@@H](c3ccccc3)C12 (stereo partly drawn) [Compound 6b] gave an SI of 4.3.
With O=c1oc2ccccc2c2nc3ncccc3c(-c3ccccc3)c12 [Compound 13a] the SI was 3.3.
With Cc1ccc(S(=O)(=O)N2CC3C(Nc4ncccc4C3c3ccccc3)c3ccccc32)cc1 (stereo not drawn) [Compound 14a] the SI was 2.9.
With O=c1oc2ccccc2c2nc3ncc(Br)cc3c(-c3ccccc3)c12 [Compound 13b] the SI was greater than 6.6.
Fc1ccc2c(c1)C1Nc3ncccc3[C@@H](c3ccccc3)C1CO2 (stereo partly drawn) [Compound 10b] gave an SI of 6.7.

Same assay, conditions: summary in discussion
For Cc1ccc(S(=O)(=O)N2Cc3c(nc4ncc(Br)cc4c3-c3ccccc3)-c3ccccc32)cc1 [Compound 15b], the “antileishmanial activity against Leishmania amastigotes (in words)” value (shortened to “antileishmanial activity”) was “significant antileishmanial activity”.
For O=c1oc2ccccc2c2nc3ncccc3c(-c3ccccc3)c12 [Compound 13a], the “antileishmanial activity” value was “significant antileishmanial activity”.
With Cc1ccc(S(=O)(=O)N2CC3C(Nc4ncccc4C3c3ccccc3)c3ccccc32)cc1 (stereo not drawn) [Compound 14a] the “antileishmanial activity” value was “significant antileishmanial activity”.

Test system: mouse splenic macrophages
Assay: Cytotoxicity in uninfected murine splenic cells (alamarBlue)
Type: cell-based
Details: summary in discussion
Protocol: Amastigotes obtained from mouse bone marrow cells were used to perform a first screening with the complete series of fused 1,5- and 1,8-naphthyridines. […] The toxicity of these selected compounds was assessed in non-infected splenic cells and the cytotoxic concentration (CC50) value obtained was used to calculate the selective index (SI). The oral tolerability of these same compounds was tested by calculating the viability of murine intestinal organoids exposed to two concentrations (50 and 25 µM). In order to assess the in vitro safety of the naphthyridines, cytotoxicity assays were carried out in ex vivo splenic explants from uninfected mice, which were prepared as previously described to obtain intramacrophagic amastigotes. Cells were seeded at a density of 1 × 10^6 cells per well in 96-well plates containing the prediluted compounds and incubated at 37 °C and 5% CO2 during 72 h. AlamarBlue assay (Invitrogen, Fisher Scientific, Waltham, MA, USA) was used to estimate cell viability following manufacturer’s recommendations. The assays were performed by triplicate. Absorbance of viable cells vs. compound concentrations were fitted by nonlinear analysis using the Sigma Plot 10.1 statistical package to calculate the cytotoxic concentration 50 (CC50) values. Selectivity index (SI) was calculated as the ratio between CC50 and the EC50 values of intramacrophagic amastigotes.
In the case of Cc1ccc(S(=O)(=O)N2Cc3c(nc4ncc(Br)cc4c3-c3ccccc3)-c3ccccc32)cc1 [Compound 15b], the “toxicity (in words)” value is reported as “significant toxicity”.
With O=c1oc2ccccc2c2nc3ncccc3c(-c3ccccc3)c12 [Compound 13a] the “toxicity (in words)” value was “significant toxicity”.
With Cc1ccc(S(=O)(=O)N2CC3C(Nc4ncccc4C3c3ccccc3)c3ccccc32)cc1 (stereo not drawn) [Compound 14a] the “toxicity (in words)” value was “significant toxicity”.

Test system: leishmanial DNA topoisomerase IB (LdTopIB)
Assay: Relaxation of supercoiled plasmid DNA assay
Type: biochemical, Leishmania
Details: 100 μM of compounds, 1 min at 37 °C, in words
Protocol: page 2: DNA DMSO 6b8a8b8c9b10b11a13a13b14a7c8d15b Relaxationof supercoiled plasmid DNA assay. Each reaction contains one unit of purified leishmanial DNA topisomeraseIB enzyme (LdTopIB), 100 μM ofcompounds, 0.5μg of supercoiled […], 10 mM Tris-HCl buffer pH 7.5, 5 mM MgCl 2, 0.1 mM EDTA, 15 μg/mL bovine serum albumin, 150 mM KCl. Reaction mixtures were incubated 1 min at 37 °C and stopped by the addition of 4 μL loading buffer (5% sarkosyl, 0.12% bromophenol blue, 25% glycerol). The topoisomerswere resolved in 1% agarose gels by electrophoresis in 0.1 M Tris borate EDTA buffer (pH 8.0) at 2 V/cm for 16 h and visualized with UV illumination after ethidium bromide (0.5μg/mL) staining. […]
For Cc1ccc(S(=O)(=O)N2Cc3c(nc4ncc(Br)cc4c3-c3ccccc3)-c3ccccc32)cc1 [Compound 15b], the LdTopIB inhibitory activity was “did not show leishmanial DNA topoisomerase IB (LdTopIB) inhibitory activity”.
With O=c1oc2ccccc2c2nc3ncccc3c(-c3ccccc3)c12 [Compound 13a] the LdTopIB inhibitory activity was “did not show leishmanial DNA topoisomerase IB (LdTopIB) inhibitory activity”.
In the case of Cc1ccc(S(=O)(=O)N2CC3C(Nc4ncccc4C3c3ccccc3)c3ccccc32)cc1 (stereo not drawn) [Compound 14a], the LdTopIB inhibitory activity is reported as “did not show leishmanial DNA topoisomerase IB (LdTopIB) inhibitory activity”.

Test system: recombinant human DNA topoisomerase IB (hTopIB)
Assay: not given
Design: method as in PMID 31229877, PMID 32279049, PMID 33962152; dose or concentration left out as unconfirmed
Details: cited from earlier work
In the case of Cc1ccc(S(=O)(=O)N2Cc3c(nc4ncc(Br)cc4c3-c3ccccc3)-c3ccccc32)cc1 [Compound 15b], the “inhibitory effect on DNA relaxation activity of hTopIB” value (from here on “inhibitory effect”) is listed as “had an inhibitory effect on DNA relaxation activity”.
For O=c1oc2ccccc2c2nc3ncccc3c(-c3ccccc3)c12 [Compound 13a], the “inhibitory effect” value is given as “had an inhibitory effect on DNA relaxation activity”.
In the case of Cc1ccc(S(=O)(=O)N2CC3C(Nc4ncccc4C3c3ccccc3)c3ccccc32)cc1 (stereo not drawn) [Compound 14a], the “inhibitory effect” value is listed as “had an inhibitory effect on DNA relaxation activity”.
